In experiment [1] the test system is human elderly peripheral blood mononuclear cells (PBMCs). The experiment is described as follows: Enriched elderly screen: TNF-inducing activity in human elderly PBMCs (384-well). The class given is cell-based. The settings on record: screen of 310 molecules, PBMCs of 4 elderly donors, 10% autologous plasma. From the text: FIG. 1A: A graphical overview depicting screen approach. From a high throughput screen previously conducted, 310 molecules were identified to be activators of either THP-1 cells (monocyte cell line) or primary human adult peripheral blood mononuclear cells (PBMCs). These 310 molecules were assembled into a stimulation plate and then applied to the PBMCs of 4 elderly donors (cultured with 10% autologous plasma). […] Z scores were averaged across all 4 elderly donors. The Z score and chemical structure for PVP-180 are indicated.
In a previous high throughput screen (HTS), a number of hit molecules were identified as potentially being able to activate human immune cells. From 200,000 molecules screened, 177 had activity with NF-KB/IRF-inducing and leukocyte adherence/inducing activity. A separate small screen (9,000 molecules of the 200,000) was also conducted and 133 separate molecules had TNF-inducing activity in adult human peripheral blood mononuclear cells (PBMCs). These molecules originated from various bioactive and commercial libraries such as ChemDiv, ChemBridge, and Asinex. All libraries were owned and provided by the Institute of Chemistry and Cell Biology (ICCB)-Longwood (Harvard Medical School). […]

Experiment [2] deals with human adult and elderly PBMCs. The experiment is described as follows: TNF production in human adult and elderly PBMCs, 96-well format, 24 h stimulation. The class given is cell-based.
The subject of experiment [3] is human adult and elderly PBMCs. The experiment is described as follows: Cytokine responses of PBMC supernatants by 14-multiplex assay. The class given is cell-based.
Experiment [4] concerns wild type murine bone marrow derived dendritic cells (BMDCs). The experiment is described as follows: TNF and IL-6 production by wild type murine bone marrow derived dendritic cells. Conditions: N=4. The experiment is classed as cell-based.
The target of the next experiment is T1, human TLR4 (Homo sapiens, UniProt O00206+Q9Y6Y9).
T1 construct: expressed in transfected cells; host or cells: HEK reporter cell line
T1 sequence (O00206 24-839): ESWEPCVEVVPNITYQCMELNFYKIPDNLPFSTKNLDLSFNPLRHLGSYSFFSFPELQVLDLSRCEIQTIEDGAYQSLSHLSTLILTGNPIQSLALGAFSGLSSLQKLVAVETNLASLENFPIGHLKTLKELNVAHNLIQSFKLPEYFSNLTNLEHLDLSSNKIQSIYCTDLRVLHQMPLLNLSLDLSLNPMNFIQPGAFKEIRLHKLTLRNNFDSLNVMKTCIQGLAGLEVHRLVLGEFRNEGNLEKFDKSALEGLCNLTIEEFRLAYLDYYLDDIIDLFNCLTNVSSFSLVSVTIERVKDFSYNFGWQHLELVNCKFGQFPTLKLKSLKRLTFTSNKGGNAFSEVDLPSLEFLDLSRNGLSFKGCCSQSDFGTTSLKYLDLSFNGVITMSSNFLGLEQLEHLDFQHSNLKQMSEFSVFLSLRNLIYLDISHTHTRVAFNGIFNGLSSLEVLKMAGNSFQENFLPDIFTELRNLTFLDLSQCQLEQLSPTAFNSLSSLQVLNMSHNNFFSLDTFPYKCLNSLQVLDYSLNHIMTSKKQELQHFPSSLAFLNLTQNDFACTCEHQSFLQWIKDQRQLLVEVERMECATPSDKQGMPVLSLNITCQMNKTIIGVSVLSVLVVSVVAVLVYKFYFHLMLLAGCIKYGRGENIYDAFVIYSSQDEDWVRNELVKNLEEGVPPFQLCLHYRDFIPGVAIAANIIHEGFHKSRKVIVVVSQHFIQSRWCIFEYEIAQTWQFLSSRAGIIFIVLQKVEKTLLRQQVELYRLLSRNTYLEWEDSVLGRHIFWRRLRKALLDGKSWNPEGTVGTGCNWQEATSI
T1 sequence (Q9Y6Y9 19-160): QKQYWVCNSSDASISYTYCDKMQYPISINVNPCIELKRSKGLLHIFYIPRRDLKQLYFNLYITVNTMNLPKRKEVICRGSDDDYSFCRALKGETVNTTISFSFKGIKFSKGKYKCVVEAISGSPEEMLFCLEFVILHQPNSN
The experiment is described as follows: PRR-transfected HEK reporter cell lines, TLR4. Conditions: HEK reporter cell line, screened at 33 μM. The experiment is classed as cell-based. As to the method: (§1) FIGS. 3A-3B. PVP-180 is a novel small molecule TLR4 agonist. FIG. 3A: PVP-180 was screened at 33 μM using pattern recognition receptor (PRR)-transfected HEK reporter cell lines. Cell line responses are also indicated to PRR-specific positive controls as well as a negative control. […] Further assays confirm that PVP-180 chemical stock is free of detectable endotoxin. FIG. 3B: PVP-180 was tested with THP-1 reporter cells as well as THP-1 cells with MyD88, TBK1, or IRF3 knockout. […] Results are reported as a percentage of TNF activity.

Experiment [5] relates to pattern recognition receptors (PRR) other than TLR4. The experiment is described as follows: PRR-transfected HEK reporter cell lines, other PRRs. The experiment is classed as cell-based. The settings on record: screened at 33 μM. As to the method:
as §1

The next experiment deals with NF-KB. The experiment is described as follows: THP-1 reporter cells and THP-1 cells with MyD88, TBK1 or IRF3 knockout. The class given is cell-based. Conditions: THP-1 reporter cells versus knockout strains. As to the method: as §1
The subject of experiment [6] is Balb/c murine model of SARS-COV-2 immunization. The experiment is described as follows: Balb/c murine model of SARS-COV-2 immunization with rSpike with or without adjuvant. The class given is in vivo, mice. Conditions: for rSpike immunogenicity: adult (12 weeks) and aged mice (52 weeks), booster on Day 14.

The structures appear in SMILES notation. Entries after “also recorded” stand apart in the source; their conditions may differ.

In the case of `CC1CCc2cc(F)ccc2N1C(=O)c1ccc(N2CC3CC(C2)c2cccc(=O)n2C3)c(NC(=O)c2cccnc2)c1` (centres unmarked) [PVP-180], the “TNF-inducing activity toward elderly PBMCs” value in experiment [1] was “robust activity”. For the same compound, the “TNF response as fold-change over the positive control (R848)” value in experiment [2] (at 3 μM and above) was “more adult-like TNF response”. Besides, in experiment [2] (elderly and adult PBMCs, stimulated for 24 hours, N=4), the “production of TNF” value was “titration-dependent production of TNF”. The “innate immune response (cytokines), elder versus younger adult leucocytes” value in experiment [3] (14-multiplex assay) is listed as “greater innate immune response in elder leucocytes than in younger adult controls”. The “production of multiple cytokines including TNF, IFNγ and IL-10” value in experiment [3] (both populations (adult and elderly PBMCs), PVP-180 at 25 μM, N=4 donors) is “induced the production of multiple cytokines”. In addition, in experiment [3] (human PBMC in vitro, compound alone), the “cytokine (TNF, IL-6, IL-10, IL-12, GM-CSF, IFN-γ, IL1-β, IP-10) and/or chemokine (CCL2, CCL5, CXCL8) production” value is listed as “sufficient to induce cytokine”. Besides, in experiment [4], the “induction of IL-6 production” value is on record as “concentration-dependent induction” and the “induction of TNF production” value was “concentration-dependent induction”. Further, at human TLR4, the “activity toward TLR4” value is “strong activity; also recorded: significant activity”. For the same compound, in experiment [5], the “activity toward the other PRRs tested” value is “not the other PRRs tested”. In the experiment with NF-KB, the “dependence of mechanism on MyD88, TBK1, IRF3” value was “dependent upon MyD88, TBK1, and IRF3”. Moreover, the rSpike immunogenicity entry in experiment [6] was “enhanced rSpike immunogenicity”. In experiment [6] (listed as compound of Formula (I)), the rSpike immunogenicity result is given as “enhanced antigen-specific immune response”. For the same compound, the “adjuvant activity in adult mice” value in experiment [6] (adult mice, overall IgG at Day 28) was “adjuvant activity in immunized adult mice. though with a less pronounced effect than in aged mice”. Moreover, in experiment [6] (aged mice), the “anti-rSpike IgG2 antibodies” value is “increase”. For the same compound, the “antibody titers versus rSpike alone” value in experiment [6] (aged mice, overall IgG at Day 28) is “substantially higher antibody titers”. In addition, the “anti-rSpike IgG1 subtype antibodies” value in experiment [6] (both adult and aged mice) is reported as “primarily enhanced the production”.

The record behind these values is patent US20250000971A1, “TLR4 AGONIST FOR MODULATING IMMUNE RESPONSE” (The Children's Medical Center Corporation, priority 2021, published 2025).
